Assays:
Assay in all cases: relative viability (nuclei count vs DMSO), 5 days (fraction); higher = more cells survive
BEN = test system: BEN
Procedure, shortened: (§1)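 Lung cancer cell lines, seeded in 1536-well plates, were treated the following day by pin tool with a single drug or with five library-drug doses (not always all listed) in √10 steps on top of a fixed anchor-drug dose. Cells were fixed and nuclei stained in one step after 5 days, and nuclei were counted. Relative viability is the nuclei count for treated wells divided by that for vehicle wells, reported as medians of duplicate plates.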

EKVX = test system: EKVX
Procedure, shortened: as §1

HARA = test system: HARA
Procedure, shortened: as §1

HCC-366 = test system: HCC-366
Procedure, shortened: as §1

HCC-827 = test system: HCC-827
Procedure, shortened: as §1

LOU-NH91 = test system: LOU-NH91
Procedure, shortened: as §1

NCI-H1355 = test system: NCI-H1355
Procedure, shortened: as §1

NCI-H1395 = test system: NCI-H1395
Procedure, shortened: as §1

NCI-H1437 = test system: NCI-H1437
Procedure, shortened: as §1

NCI-H1734 = test system: NCI-H1734
Procedure, shortened: as §1

NCI-H1792 = test system: NCI-H1792
Procedure, shortened: as §1

NCI-H1993 = test system: NCI-H1993
Procedure, shortened: as §1

NCI-H2009 = test system: NCI-H2009
Procedure, shortened: as §1

NCI-H2087 = test system: NCI-H2087
Procedure, shortened: as §1

NCI-H2170 = test system: NCI-H2170
Procedure, shortened: as §1

NCI-H2342 = test system: NCI-H2342
Procedure, shortened: as §1

NCI-H2405 = test system: NCI-H2405
Procedure, shortened: as §1

NCI-H522 = test system: NCI-H522
Procedure, shortened: as §1

NCI-H647 = test system: NCI-H647
Procedure, shortened: as §1

NCI-H661 = test system: NCI-H661
Procedure, shortened: as §1

SK-LU-1 = test system: SK-LU-1
Procedure, shortened: as §1

SK-MES-1 = test system: SK-MES-1
Procedure, shortened: as §1

SMILES: COc1nc(C)cnc1NS(=O)(=O)c1cccnc1-c1ccc(-c2nnco2)cc1 [Zibotentan] + CC(=O)Nc1cccc(-n2c(=O)n(C3CC3)c(=O)c3c(Nc4ccc(I)cc4F)n(C)c(=O)c(C)c32)c1 [Trametinib] (partner 0.02 µM)
- relative viability (BEN; first compound 0.08 µM): 1.04
- relative viability (BEN; first compound 0.253 µM): 0.926
- relative viability (BEN; first compound 0.8 µM): 0.832
- relative viability (BEN; first compound 2.53 µM): 0.979
- relative viability (EKVX; first compound 0.08 µM): 0.33
- relative viability (EKVX; first compound 0.253 µM): 0.364
- relative viability (EKVX; first compound 0.8 µM): 0.315
- relative viability (EKVX; first compound 2.53 µM): 0.321
- relative viability (HARA; first compound 0.08 µM): 0.996
- relative viability (HARA; first compound 0.8 µM): 0.414
- relative viability (HARA; first compound 2.53 µM): 0.764
- relative viability (HCC-366; first compound 0.08 µM): 0.378
- relative viability (HCC-366; first compound 0.253 µM): 0.318
- relative viability (HCC-366; first compound 0.8 µM): 0.361
- relative viability (HCC-366; first compound 2.53 µM): 0.383
- relative viability (HCC-827; first compound 0.08 µM): 0.503
- relative viability (HCC-827; first compound 0.253 µM): 0.529
- relative viability (HCC-827; first compound 0.8 µM): 0.491
- relative viability (HCC-827; first compound 2.53 µM): 0.548
- relative viability (LOU-NH91; first compound 0.08 µM): 0.777
- relative viability (LOU-NH91; first compound 0.253 µM): 0.814
- relative viability (LOU-NH91; first compound 0.8 µM): 0.817
- relative viability (LOU-NH91; first compound 2.53 µM): 0.816
- relative viability (NCI-H1355; first compound 0.08 µM): 0.399
- relative viability (NCI-H1355; first compound 0.253 µM): 0.437
- relative viability (NCI-H1355; first compound 0.8 µM): 0.402
- relative viability (NCI-H1355; first compound 2.53 µM): 0.438
- relative viability (NCI-H1395; first compound 0.08 µM): 1.05
- relative viability (NCI-H1395; first compound 0.253 µM): 0.947
- relative viability (NCI-H1395; first compound 0.8 µM): 1.07
- relative viability (NCI-H1395; first compound 2.53 µM): 1.07
- relative viability (NCI-H1437; first compound 0.08 µM): 0.533
- relative viability (NCI-H1437; first compound 0.253 µM): 0.541
- relative viability (NCI-H1437; first compound 0.8 µM): 0.455
- relative viability (NCI-H1437; first compound 2.53 µM): 0.496
- relative viability (NCI-H1734; first compound 0.08 µM): 0.721
- relative viability (NCI-H1734; first compound 0.253 µM): 0.705
- relative viability (NCI-H1734; first compound 0.8 µM): 0.647
- relative viability (NCI-H1734; first compound 2.53 µM): 0.733
- relative viability (NCI-H1792; first compound 0.08 µM): 0.546
- relative viability (NCI-H1792; first compound 0.253 µM): 0.479
- relative viability (NCI-H1792; first compound 0.8 µM): 0.389
- relative viability (NCI-H1792; first compound 2.53 µM): 0.537
- relative viability (NCI-H1993; first compound 0.08 µM): 0.591
- relative viability (NCI-H1993; first compound 0.253 µM): 0.51
- relative viability (NCI-H1993; first compound 0.8 µM): 0.459
- relative viability (NCI-H1993; first compound 2.53 µM): 0.545
- relative viability (NCI-H2009; first compound 0.08 µM): 0.273
- relative viability (NCI-H2009; first compound 0.253 µM): 0.258
- relative viability (NCI-H2009; first compound 0.8 µM): 0.266
- relative viability (NCI-H2009; first compound 2.53 µM): 0.278
- relative viability (NCI-H2087; first compound 0.08 µM): 0.192
- relative viability (NCI-H2087; first compound 0.253 µM): 0.146
- relative viability (NCI-H2087; first compound 0.8 µM): 0.246
- relative viability (NCI-H2087; first compound 2.53 µM): 0.208
- relative viability (NCI-H2170; first compound 0.08 µM): 0.966
- relative viability (NCI-H2170; first compound 0.253 µM): 0.897
- relative viability (NCI-H2170; first compound 0.8 µM): 0.903
- relative viability (NCI-H2170; first compound 2.53 µM): 0.908
- relative viability (NCI-H2342; first compound 0.08 µM): 0.848
- relative viability (NCI-H2342; first compound 0.253 µM): 0.78
- relative viability (NCI-H2342; first compound 0.8 µM): 0.844
- relative viability (NCI-H2342; first compound 2.53 µM): 1.16
- relative viability (NCI-H2405; first compound 0.08 µM): 0.67
- relative viability (NCI-H2405; first compound 0.253 µM): 0.599
- relative viability (NCI-H2405; first compound 0.8 µM): 0.648
- relative viability (NCI-H2405; first compound 2.53 µM): 0.657
- relative viability (NCI-H522; first compound 0.08 µM): 0.732
- relative viability (NCI-H522; first compound 0.253 µM): 0.667
- relative viability (NCI-H522; first compound 0.8 µM): 0.727
- relative viability (NCI-H522; first compound 2.53 µM): 0.856
- relative viability (NCI-H647; first compound 0.08 µM): 0.452
- relative viability (NCI-H647; first compound 0.253 µM): 0.42
- relative viability (NCI-H647; first compound 0.8 µM): 0.431
- relative viability (NCI-H647; first compound 2.53 µM): 0.532
- relative viability (NCI-H661; first compound 0.08 µM): 0.574
- relative viability (NCI-H661; first compound 0.253 µM): 0.495
- relative viability (NCI-H661; first compound 0.8 µM): 0.589
- relative viability (NCI-H661; first compound 2.53 µM): 0.601
- relative viability (SK-LU-1; first compound 0.08 µM): 0.503
- relative viability (SK-LU-1; first compound 0.253 µM): 0.472
- relative viability (SK-LU-1; first compound 0.8 µM): 0.451
- relative viability (SK-LU-1; first compound 2.53 µM): 0.458
- relative viability (SK-MES-1; first compound 0.08 µM): 0.581
- relative viability (SK-MES-1; first compound 0.253 µM): 0.533
- relative viability (SK-MES-1; first compound 0.8 µM): 0.563
- relative viability (SK-MES-1; first compound 2.53 µM): 0.556

Reference: the supplement of paper PMC10307832
